Laboratory results taken from the supplement of paper PMC4862054.

Experiments:
Experiment in all cases: normalised response (% of control), CellTiter-Glo; higher = more viable cells (100 = DMSO, 0 = benzethonium chloride kill control)
Details in all cases: incubation time: 72 h
[1] = test system: MDA-MB-436
How it was run: (§1)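 Breast cancer cell lines, seeded at 20 µl suspension per well, were incubated for 72 h in 384-well plates containing compound at 5 concentrations. These concentrations rose in 10-fold steps over a 10,000-fold range set for each compound. CellTox Green fluorescence (485/520 nm) was read, then CellTiter-Glo luminescence after 10 min at room temperature, and each plate was normalised to 0.1 % DMSO (100) and a positive kill control (0). Values are normalised signals, each at one concentration.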

[2] = test system: HCC1143
How it was run: as §1

[3] = test system: BT-549
How it was run: as §1

[4] = test system: MDA-MB-453
How it was run: as §1

[5] = test system: CAL-148
How it was run: as §1

[6] = test system: DU-4475
How it was run: as §1

[7] = test system: MDA-MB-231
How it was run: as §1

[8] = test system: SK-BR-3
How it was run: as §1

[9] = test system: BT-474
How it was run: as §1

[10] = test system: MCF-10A
How it was run: as §1

[11] = test system: MDA-MB-468
How it was run: as §1

[12] = test system: HDQ-P1
How it was run: as §1

[13] = test system: Hs578T
How it was run: as §1

[14] = test system: CAL-120
How it was run: as §1

[15] = test system: CAL-85-1
How it was run: as §1

[16] = test system: MFM-223
How it was run: as §1

[17] = test system: HCC1937
How it was run: as §1

[18] = test system: CAL-51
How it was run: as §1

[19] = test system: HCC1599
How it was run: as §1

Row | Compound | normalised response [1] | normalised response [2] | normalised response [3] | normalised response [4] | normalised response [5] | normalised response [6] | normalised response [7] | normalised response [8] | normalised response [9] | normalised response [10] | normalised response [11] | normalised response [12] | normalised response [13] | normalised response [14] | normalised response [15] | normalised response [16] | normalised response [17] | normalised response [18] | normalised response [19]
1 | Oc1ncc(N(CCCl)CCCl)c(O)n1 [Uracil mustard] (1 nM) | 95.8% | 102% | 89.4% | 105% | 101% | 95.6% | 97.2% | 99.7% | 105% | 105% | 107% | 98.8% | 99.7% | 98.6% | 94.2% | 101% | 103% | 115% | 105%
2 | COc1cc2nccc(Oc3ccc(NC(=O)Nc4cc(C)on4)c(Cl)c3)c2cc1OC [Tivozanib] (10 nM) | 94.2% | 99.9% | 100% | 91.7% | 82.1% | 99.1% | 98.5% | 80.7% | 89.9% | 90.3% | 93.5% | 100% | 94.3% | 97.4% | 93.5% | 87.2% | 98.7% | 85.4% | 98.2%
3 | CC1=C(/C=C/C(C)=C/C=C/C(C)=C/C(=O)O)C(C)(C)CCC1 [Tretinoin] (10 nM) | 94.1% | 95.8% | 96.9% | 94.7% | 97.8% | 98.5% | 101% | 97% | 96.6% | 83.7% | 97.7% | 94.4% | 97.7% | 93.2% | 100% | 103% | 98% | 81% | 102%
4 | Nc1nc2[nH]cc(CCc3ccc(C(=O)N[C@@H](CCC(=O)O)C(=O)O)cc3)c2c(=O)[nH]1 [Pemetrexed] (10 nM) | 91.3% | 106% | 108% | 92.8% | 98% | 95.3% | 96.9% | 97.1% | 98.2% | 100% | 93.9% | 99.5% | 98.5% | 105% | 97.5% | 94.9% | 104% | 73.3% | 88.7%
5 | CNC(=O)c1cc(Oc2ccc(NC(=O)Nc3cc(C(C)(C)C)nn3-c3ccc4ncccc4c3)c(F)c2)ccn1 [Rebastinib] (1 nM) | 99.5% | 104% | 93.8% | 93.5% | 109% | 98.8% | 94.7% | 104% | 98.8% | 109% | 96.3% | 100% | 103% | 99.1% | 99.5% | 100% | 97.6% | 123% | 102%
